US10532987B2, “Compounds and methods for inducing browning of white adipose tissue” (GUANGZHOU INSTITUTES OF BIOMEDICINE AND HEALTH, CHINESE …, priority 2015, dated 2020)

The compounds below were run on Ucp1 (assay: UCP1 luciferase assay (Ucp1 up-regulation in differentiated inguinal adipocytes of Ucp1-luciferase knock-in mice)). Settings: Mus musculus, Adipocyte, 48 h; at 0.3 μM; 2 days treatment; luciferase activity; read-out: Ucp1 activation fold/corresponding concentration.
Format: cell-based
Experimental: TEST EXAMPLE 1 UCP1 Luciferase Assay
Evaluating Compounds that Induce Ucp1 Up-Regulation
Ucp1-luciferase knock-in mice will be housed in cages and fed on standard chow diets (the detailed procedures please see reference 14). The 8-week-old mice will be killed by the cervical dislocation and put into 75% alcohol for 5 minutes. The inguinal adipose tissue will be dissected out and transferred to the three 10-cm petri dishes and washed with PBS for three times. The adipose tissue will be dissected and minced on a 10-cm petri dish for several minutes and then pipetted into 20 ml 0.1% collagenase solution in 50 ml conical tubes and digested at 37° C. for 1 hour. Next, 20 ml culture medium will be added to terminate the digestion and centrifuged for 10 minutes at 1000 rpm respectively. The supernatants will be removed and the pellets re-suspended in 10 mL culture medium and plated into 10-cm plates. The cells will be left to adhere to the plates overnight and the culture medium will be changed every other day. The confluent cells will be trypsinized, counted and plated to 24-well plate (5×10^4 cells/well). The cells will be washed and re-fed the next day (as day −2). Two days later (day 0), the cells will usually become confluent and be induced to differentiate with MDIR medium. On day 2, the medium will be changed to IR medium and re-fed every 2 days. Complete differentiation is usually achieved by day 10. On day 10, the medium will be changed to the culture medium of 10% FBS/DMEM with indicated drugs along with the positive and negative controls for 2 days. The media will be removed and the cells washed with 1 ml PBS per well three times. Then 100 μl lysis buffer will be used to lyse the cells at 4° C. for 1 hour. 30 μl culture medium, 30 μl cell lysates and 60 μl Steady-Glo® Reagent were added to a well of 96-well-plate and the luminescence will be measured using a luminometer. The protein concentration will be determined using 20 μl cell lysates and specific activity of luciferase will be tabulated and data analyzed.

With `COc1ccc(-c2csc(NC(=O)[C@@H]3CCCN3)n2)cc1OC` [Compound 70, (S)—N-(4-(3,4-dimethoxyphenyl)thiazol-2-yl)pyrrolidine-2-carboxamide] as the compound, how does the fold induction at 0.3 µM read?
Its fold induction at 0.3 µM is 1.7.

With `CCOC(=O)N1CCC[C@H]1C(=O)Nc1nc(-c2ccc(OC)c(OC)c2)cs1` [Compound 71, (S)-ethyl 2-(4-(3,4-dimethoxyphenyl)thiazol-2-ylcarbamoyl)pyrrolidine-1-carboxylate] as the compound, how does the fold induction at 0.3 µM read?
The fold induction at 0.3 µM was 1.7.

`O=C(O)COc1ccc(-c2csc(Nc3ccccn3)n2)cc1` [Compound 45, 2-(4-(2-(pyridin-2-ylamino)thiazol-4-yl)phenoxy)acetic acid] was tested. Which fold induction at 0.3 µM did it give?
The fold induction at 0.3 µM was 1.3.

For `COc1ccc(-c2csc(Nc3ccccn3)n2)c(OC)c1` [Compound 15, 4-(2,4-dimethoxyphenyl)-N-(pyridin-2-yl)thiazol-2-amine], which fold induction at 0.3 µM is on record?
Its fold induction at 0.3 µM is 1.4.

How did the fold induction at 0.3 µM turn out when `c1ccc(Nc2nc(-c3c[nH]c4ccccc34)cs2)nc1` [Compound 7, 4-(1H-indol-3-yl)-N-(pyridin-2-yl)thiazol-2-amine] was run?
The fold induction at 0.3 µM was 1.2.

Same assay, conditions: Mus musculus, Adipocyte, 48 h; at 1 μM; 2 days treatment; luciferase activity; read-out: Ucp1 activation fold/corresponding concentration

How did the fold induction at 1 µM turn out when `COc1cccc(-c2csc(Nc3ccccn3)n2)c1` [Compound 3, 4-(3-methoxyphenyl)-N-(pyridin-2-yl)thiazol-2-amine] was run?
The fold induction at 1 µM was 2.8.

For `CCNC(=O)c1ccc(-c2csc(Nc3ccccn3)n2)cc1` [Compound 53, N-ethyl-4-(2-(pyridin-2-ylamino)thiazol-4-yl)benzamide], which fold induction at 1 µM is on record?
Its fold induction at 1 µM is 3.

For `COc1ccc(-c2csc(Nc3ccc(C)cn3)n2)cc1OC` [Compound 11, 4-(3,4-dimethoxyphenyl)-N-(5-methylpyridin-2-yl)thiazol-2-amine], which fold induction at 1 µM is on record?
Its fold induction at 1 µM is 2.

Which fold induction at 1 µM does the source give for `c1ccc(Nc2nc(-c3ccc4c(c3)CCC4)cs2)nc1` [Compound 81, 4-(2,3-dihydro-1H-inden-5-yl)-N-(pyridin-2-yl)thiazol-2-amine] here?
The fold induction at 1 µM was 2.

With `CNc1nc(-c2ccc(OC)c(OC)c2)cs1` [Compound 31, 4-(3,4-dimethoxyphenyl)-N-methylthiazol-2-amine] as the compound, how does the fold induction at 1 µM read?
Its fold induction at 1 µM is 1.1.

How did the fold induction at 1 µM turn out when `c1ccc(Nc2nc(-c3ccc(CN4CCOCC4)cc3)cs2)nc1` [Compound 54, 4-(4-(morpholinomethyl)phenyl)-N-(pyridin-2-yl)thiazol-2-amine] was run?
The fold induction at 1 µM was 3.9.

Which fold induction at 1 µM does the source give for `CC(C)Oc1ccc(-c2csc(Nc3ccccn3)n2)cc1` [Compound 42, 4-(4-isopropoxyphenyl)-N-(pyridin-2-yl)thiazol-2-amine] here?
Its fold induction at 1 µM is 2.

How did the fold induction at 1 µM turn out when `CCCCOc1ccc(-c2csc(Nc3ccccn3)n2)cc1` [Compound 43, 4-(4-butoxyphenyl)-N-(pyridin-2-yl)thiazol-2-amine] was run?
The fold induction at 1 µM was 2.8.

How did the fold induction at 1 µM turn out when `c1ccc(Nc2nc(-c3ccccn3)cs2)nc1` [Compound 27, N,4-di(pyridin-2-yl)thiazol-2-amine] was run?
The fold induction at 1 µM was 3.3.

With `COc1ccc(-c2csc(Nc3cc(C)ccn3)n2)cc1OC` [Compound 2, 4-(3,4-dimethoxyphenyl)-N-(4-methylpyridin-2-yl)thiazol-2-amine] as the compound, how does the fold induction at 1 µM read?
Its fold induction at 1 µM is 1.1.

Same assay, conditions: Mus musculus, Adipocyte, 48 h; at 3 μM; 2 days treatment; luciferase activity; read-out: Ucp1 activation fold/corresponding concentration

For `c1ccc(CNc2ccc(-c3csc(Nc4ccccn4)n3)cc2)cc1` [Compound 55, 4-(4-(benzylamino)phenyl)-N-(pyridin-2-yl)thiazol-2-amine], which fold induction at 3 µM is on record?
The fold induction at 3 µM was 2.

`Cc1ccc(-c2csc(Nc3ccccn3)n2)cc1C` [Compound 80, 4-(3,4-dimethylphenyl)-N-(pyridin-2-yl)thiazol-2-amine] was tested. Which fold induction at 3 µM did it give?
The fold induction at 3 µM was 1.5.

Which fold induction at 3 µM does the source give for `O=C(COc1ccc(-c2csc(Nc3ccccn3)n2)cc1)N1CCOCC1` [Compound 46, 1-morpholino-2-(4-(2-(pyridin-2-ylamino)thiazol-4-yl)phenoxy)ethanone] here?
The fold induction at 3 µM was 1.7.

Which fold induction at 3 µM does the source give for `N#Cc1cccc(-c2csc(Nc3ccccn3)n2)c1` [Compound 5, 3-(2-(pyridin-2-ylamino)thiazol-4-yl)benzonitrile] here?
The fold induction at 3 µM was 5.4.

Which fold induction at 3 µM does the source give for `CCOC(=O)[C@@H]1CCCN1C(=O)c1ccc(-c2csc(Nc3ccccn3)n2)cc1` [Compound 67, (S)-ethyl 1-(4-(2-(pyridin-2-ylamino)thiazol-4-yl)benzoyl)pyrrolidine-2-carboxylate] here?
Its fold induction at 3 µM is 3.1.

With `COC(=O)c1ccc(-c2csc(Nc3ccccn3)n2)cc1` [Compound 48, methyl 4-(2-(pyridin-2-ylamino)thiazol-4-yl)benzoate] as the compound, how does the fold induction at 3 µM read?
Its fold induction at 3 µM is 6.

With `Clc1cccc(-c2csc(Nc3ccccn3)n2)c1Cl` [Compound 75, 4-(2,3-dichlorophenyl)-N-(pyridin-2-yl)thiazol-2-amine] as the compound, how does the fold induction at 3 µM read?
Its fold induction at 3 µM is 1.1.

For `COCCOCCNC(=O)c1ccc(-c2csc(Nc3ccccn3)n2)cc1` [Compound 62, N-(2-(2-methoxyethoxy)ethyl)-4-(2-(pyridin-2-ylamino)thiazol-4-yl)benzamide], which fold induction at 3 µM is on record?
Its fold induction at 3 µM is 2.2.

How did the fold induction at 3 µM turn out when `O=C(Nc1ccncc1)c1ccc(-c2csc(Nc3ccccn3)n2)cc1` [Compound 65, 4-(2-(pyridin-2-ylamino)thiazol-4-yl)-N-(pyridin-4-yl)benzamide] was run?
The fold induction at 3 µM was 1.1.

`CCN(CC)C(=O)c1ccc(-c2csc(Nc3ccccn3)n2)cc1` [Compound 66, N,N-diethyl-4-(2-(pyridin-2-ylamino)thiazol-4-yl)benzamide] was tested. Which fold induction at 3 µM did it give?
Its fold induction at 3 µM is 1.

With `CN(C)c1ccc(-c2csc(Nc3ccccn3)n2)cc1` [Compound 16, 4-(4-(dimethylamino)phenyl)-N-(pyridin-2-yl)thiazol-2-amine] as the compound, how does the fold induction at 3 µM read?
The fold induction at 3 µM was 5.1.

Which fold induction at 3 µM does the source give for `Brc1ccc(-c2csc(Nc3ccccn3)n2)cc1` [Compound 40, 4-(4-bromophenyl)-N-(pyridin-2-yl)thiazol-2-amine] here?
Its fold induction at 3 µM is 3.

For `COc1ccc(-c2csc(Nc3ccccc3)n2)cc1OC` [Compound 20, 4-(3,4-dimethoxyphenyl)-N-phenylthiazol-2-amine], which fold induction at 3 µM is on record?
The fold induction at 3 µM was 3.

`CCOC(=O)COc1ccc(-c2csc(Nc3ccccn3)n2)cc1` [Compound 44, ethyl 2-(4-(2-(pyridin-2-ylamino)thiazol-4-yl)phenoxy)acetate] was tested. Which fold induction at 3 µM did it give?
Its fold induction at 3 µM is 1.9.

For `CC(C)NC(=O)c1ccc(-c2csc(Nc3ccccn3)n2)cc1` [Compound 57, N-isopropyl-4-(2-(pyridin-2-ylamino)thiazol-4-yl)benzamide], which fold induction at 3 µM is on record?
The fold induction at 3 µM was 3.5.

`Clc1ccc(-c2csc(Nc3ccccn3)n2)cc1` [Compound 63, 4-(4-chlorophenyl)-N-(pyridin-2-yl)thiazol-2-amine] was tested. Which fold induction at 3 µM did it give?
Its fold induction at 3 µM is 5.9.

How did the fold induction at 3 µM turn out when `O=C(Nc1ccc(Cl)cc1)c1csc(Nc2ccccn2)n1` [Compound 68, N-(4-chlorophenyl)-2-(pyridin-2-ylamino)thiazole-4-carboxamide] was run?
Its fold induction at 3 µM is 1.3.

With `O=C(Nc1ccccn1)c1ccc(-c2csc(Nc3ccccn3)n2)cc1` [Compound 69, N-(pyridin-2-yl)-4-(2-(pyridin-2-ylamino)thiazol-4-yl)benzamide] as the compound, how does the fold induction at 3 µM read?
Its fold induction at 3 µM is 4.6.

With `O=C(Nc1ccccc1)c1ccc(-c2csc(Nc3ccccn3)n2)cc1` [Compound 58, N-phenyl-4-(2-(pyridin-2-ylamino)thiazol-4-yl)benzamide] as the compound, how does the fold induction at 3 µM read?
Its fold induction at 3 µM is 1.4.

`Cc1ccc(-c2csc(Nc3ccccn3)n2)cc1` [Compound 21, N-(pyridin-2-yl)-4-p-tolylthiazol-2-amine] was tested. Which fold induction at 3 µM did it give?
Its fold induction at 3 µM is 2.9.

With `COc1ccc(-c2csc(Nc3cccnc3)n2)cc1OC` [Compound 33, 4-(3,4-dimethoxyphenyl)-N-(pyridin-3-yl)thiazol-2-amine] as the compound, how does the fold induction at 3 µM read?
The fold induction at 3 µM was 2.

For `Cc1cc(-c2csc(Nc3ccccn3)n2)ccc1N` [Compound 83, 4-(4-amino-3-methylphenyl)-N-(pyridin-2-yl)thiazol-2-amine], which fold induction at 3 µM is on record?
The fold induction at 3 µM was 6.

Which fold induction at 3 µM does the source give for `COc1ccc(-c2csc(Nc3nc4ccc(C)cc4s3)n2)cc1OC` [Compound 14, N-(4-(3,4-dimethoxyphenyl)thiazol-2-yl)-6-methylbenzo[d]thiazol-2-amine] here?
The fold induction at 3 µM was 2.4.

Which fold induction at 3 µM does the source give for `CC(C)NC(=O)Nc1ccc(-c2csc(Nc3ccccn3)n2)cc1` [Compound 37, 1-isopropyl-3-(4-(2-(pyridin-2-ylamino)thiazol-4-yl)phenyl)urea] here?
The fold induction at 3 µM was 2.

With `c1ccc(Nc2nc(-c3ccc(-c4ccncc4)cc3)cs2)nc1` [Compound 79, N-(pyridin-2-yl)-4-(4-(pyridin-4-yl)phenyl)thiazol-2-amine] as the compound, how does the fold induction at 3 µM read?
The fold induction at 3 µM was 1.8.

Which fold induction at 3 µM does the source give for `c1ccc(-c2ccc(-c3csc(Nc4ccccn4)n3)cc2)cc1` [Compound 50, 4-(biphenyl-4-yl)-N-(pyridin-2-yl)thiazol-2-amine] here?
Its fold induction at 3 µM is 2.4.

`Brc1cc(N2CCOCC2)ccc1-c1csc(Nc2ccccn2)n1` [Compound 28, 4-(2-bromo-4-morpholinophenyl)-N-(pyridin-2-yl)thiazol-2-amine] was tested. Which fold induction at 3 µM did it give?
Its fold induction at 3 µM is 3.2.

Which fold induction at 3 µM does the source give for `COc1ccc(-c2csc(Nc3cccc(C)n3)n2)cc1OC` [Compound 10, 4-(3,4-dimethoxyphenyl)-N-(6-methylpyridin-2-yl)thiazol-2-amine] here?
Its fold induction at 3 µM is 3.8.
